We go through seven molecules from US9433683B2, “Reversible pegylated drugs” (Yeda Research and Development Co., Ltd., priority 2003, dated 2016).

Several values for one entry are separate records, joined by “and”; a condition that tells them apart may be missing. Equal entries are not always repeated. Where a SMILES comes first, the peptide text is derived from it.

Data set [1] can be described thus: Solubility in aqueous buffer. The data set is classed as physicochemical. The settings on record: pH 7.2, aqueous buffer.
Data set [2] can be described thus: Stability of the maleimide moiety of MAL-FMS-NHS in aqueous solutions (GSH/DTNB). The data set is classed as physicochemical. On the procedure:
MAL-FMS-NHS (1 mM) was incubated at room temperature in H2O (pH 6.0), in 0.007 M acetic acid (pH˜4.0), in 0.1 M phosphate buffer (pH 7.4), and in 0.1 M NaHCO3 (pH 8.5). At the indicated time points, aliquots were allowed to react with a slight excess of GSH (15 min at pH 7.2) and the concentration of unreacted GSH was determined with 5,5-dithiobis(2-nitrobenzoic acid) (DTNB).
Stability of the MAL-functional moiety in aqueous solutions. In order to test the stability of the maleimide function of MAL-FMS-NHS in aqueous solutions at different pH values, MAL-FMS-NHS (1 mM) was incubated at room temperature in water (pH 6.0), in 0.007M acetic acid (pH˜4.0), in 0.1M phosphate buffer (pH 7.4), and in 0.1M NaHCO3 (pH 8.5). At several time points, aliquots were allowed to react with a slight excess of reduced glutathione (GSH) (15 min at pH 7.2) and the concentration of unreacted GSH was determined with DTNB (5,5′-dithio-bis-2-nitrobenzoic acid, Ellman's reagent), by measuring the absorbance of the produced yellow colored 5-thio-2-nitrobenzoic acid (TNB) at 405 or 412 nm.

The next data set in a line: physchem. The following applies: buffer, pH 8.5.
The target of data set [3] is T1, hGH-receptor preparation extracted from rabbit liver plasma membranes (Oryctolagus cuniculus, UniProt P19941).
T1 construct: enriched hGH-receptor preparation extracted from rabbit liver plasma membranes; from tissue; host or cells: rabbit liver plasma membranes
T1 sequence (P19941 19-638): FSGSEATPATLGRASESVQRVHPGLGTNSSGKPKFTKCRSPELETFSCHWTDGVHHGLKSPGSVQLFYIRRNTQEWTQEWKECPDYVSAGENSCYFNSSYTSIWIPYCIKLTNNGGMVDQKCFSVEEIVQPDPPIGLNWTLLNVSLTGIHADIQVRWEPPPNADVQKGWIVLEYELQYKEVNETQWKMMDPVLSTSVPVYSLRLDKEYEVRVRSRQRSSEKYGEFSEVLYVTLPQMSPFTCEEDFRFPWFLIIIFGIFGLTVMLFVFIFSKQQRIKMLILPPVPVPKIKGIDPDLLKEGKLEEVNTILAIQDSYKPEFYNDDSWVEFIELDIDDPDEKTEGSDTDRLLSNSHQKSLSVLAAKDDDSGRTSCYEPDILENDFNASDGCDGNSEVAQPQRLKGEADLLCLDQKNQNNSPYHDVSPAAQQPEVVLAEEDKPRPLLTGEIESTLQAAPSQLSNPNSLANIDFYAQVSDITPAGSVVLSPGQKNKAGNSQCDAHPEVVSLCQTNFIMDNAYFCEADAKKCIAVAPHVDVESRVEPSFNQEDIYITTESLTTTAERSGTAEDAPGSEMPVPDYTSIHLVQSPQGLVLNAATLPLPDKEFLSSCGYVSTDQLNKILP
Nature of the data set: 125I-hGH displacement from hGH-receptor preparation. The class given is binding. On the procedure: PEG40000-FMS-hGH (1 mg/ml) was incubated in 0.1 M phosphate buffer, 0.6% BSA and −2 mM NaN3 at 37° C. Aliquots were withdrawn at the indicated time points, and analyzed for their potencies to displace ^125I-hGH from enriched hGH-receptor preparation extracted from rabbit liver plasma membranes. Native hGH displaces ^125I-hGH in this assay half maximally at a concentration of 0.3±0.03 nM. […] PEG40000FMS-hGH (1 mg protein) was incubated as described above. At the indicated time points, 0.1 ml aliquots withdrawn and subjected to analytical HPLC analysis.
The hGH displacement assay was performed as previously described (Tsushima et al., 1980).

For data set [4] the following is noted: Clark et al., 1996; cited from earlier work.
A short description of data set [5]: Hydrolysis of conjugates / release of parent drug upon incubation at pH 8.5, 37° C. (HPLC or TNBS).
The conditions of data set [6]: human, in vivo; cited from earlier work.
Data set [7] deals with rat adipocytes. Put plainly: Lipogenesis ([U-14C]glucose incorporation into lipids) in rat adipocytes. The class given is cell-based. The settings on record: Example 34 assay, 2 h at 37° C.; HSA conjugates taken as 24±3 μg insulin per mg HSA.
Data set [8] can be described thus: Pharmacokinetic profile of SC 125I-insulin and 125I-HSA in rats. The settings on record: 10 μg 125I-labeled protein.
Description: Blood aliquots obtained from the tail vein at the indicated time points were spotted onto Whatman #3 paper and weighed immediately. Each paper was washed with 10% TCA and measured for its radioactive content. […] Each point in the figure represents the arithmetic mean of 5 rats±SE.
Rats were maintained at 24° C. under conditions of controlled lighting and were fed ad libitum. […] Data are presented as means±SE.
For comparison, we subcutaneously administered ^125I-insulin under similar experimental conditions.
A further data set has as its system CD1-mice. Nature of the data set: Glucose-lowering potency of insulin and PEG5000-Fmoc-insulin in mice (SC or IP). The class given is in vivo, mouse. On the procedure:
Mice received SC, either native insulin (Zn^2+-free, 1.72 nmole/mouse in 0.2 ml PBS buffer) or (PEG5000-Fmoc)1-insulin (17.2 nmole/mouse, in 0.2 ml PBS buffer). Blood glucose levels were determined at the indicated time points. Each point is the arithmetic mean±SEM of blood glucose of five mice.
Groups of mice received IP either insulin (Zn^2+-free, 0.345 nmol/mouse, in 0.2 ml PBS buffer) or (PEG5000-Fmoc)1-insulin (3.45 nmoles/mouse, in 0.2 ml PBS buffer). Blood glucose levels were determined at the indicated time points. Each point in the figure is the arithmetic mean±SEM of five mice.
(iv) Glucose-lowering potency of insulin and its derivatives was determined in mice following administration under the conditions specified in each experiment. […] Each group consisted of 4-5 mice. Data are presented as means±SEM.
Native insulin (Zn^2+ free, 1.72 nmol/mouse) or (PEG5000-Fmoc)1-insulin (17.2 nmoles/mouse) were administered subcutaneously to groups of mice (n=5 in each group), and the glucose lowering profiles were determined. Native insulin reduced blood glucose level maximally at 30 min.
In order to differentiate between these factors, the subcutaneous compartment was bypassed by administering native insulin (Zn^2+-free, 0.345 nmoles/mouse, in 0.2 ml PBS buffer) or (PEG5000-Fmoc)1-insulin (3.45 nmoles/mouse, in 0.2 ml PBS buffer) intraperitoneally. The glucose lowering capacities were then monitored. Blood glucose levels were determined at different time points.

For data set [9], the system named is rat adipocytes. Put plainly: Lipogenesis ([U-14C]glucose incorporation into lipids) in rat adipocytes. The class given is cell-based. On the procedure: (4A) Insulin (17.24 nmoles in 0.2 ml 0.01 M NaHCO3) reacted with increasing concentrations of PEG5000-Fmoc-OSu at a molar excess over the protein as indicated in the figure for 2 hours at 25° C. The number of free amino groups that remained unmodified were quantitated with TNBS.
PEG5000-Fmoc-insulin conjugates containing one and two moles of PEG5000-Fmoc/mole insulin were incubated at a concentration of 0.172 μM in 0.1 M NaHCO3-0.5% bovine serum albumin and 1 mM NaN3 at 37° C. At the indicated time points aliquots were analyzed (in several concentrations for each aliquot) for their lipogenic potencies in rat adipocytes.
Results are expressed as a percentage of maximal stimulation.
(ii) Rat adipocytes were prepared from fat pads of male Wistar rats (100-200 gr) by collagenase digestion as described (Rodbell, 1964). The fat pads were cut into small pieces with scissors and suspended in 3 ml of KRB buffer containing NaCl, 110 mM; NaHCO3, 25 mM; Kcl, 5 mM; KH2PO4, 1.2 mM; CaCl2, 1.3 mM; MgSO4, 1.3 mM; and 0.7% BSA (pH 7.4). […] Five ml of buffer was then added, and the cells were passed through a mesh screen. The cells were then allowed to stand for several minutes in a 15 ml plastic test tube at room temperature, floating, and the buffer underneath was removed. This procedure (suspension, floating, and removal of buffer underneath) was repeated three times.
(iii) Lipogenesis (incorporation of [U-^14C] glucose into the lipids of intact adipocytes). The incorporation of [U-^14C] glucose into adipose tissue in rat adipocytes was performed as described (Moody et al., 1974). Adipocyte suspensions (3×10^5 cells/ml) were divided into plastic vials (0.5 ml per vial) and incubated for 60 min at 37° C. under an atmosphere of carbogen with 0.2 mM [U-^14C]glucose, in either the absence or presence of insulin. Lipogenesis was terminated by adding toluene-based scintillation fluid (1.0 ml per vial) and the radioactivity in extracted lipids was counted.
Rat adipocytes were prepared from the fat pads of male Wistar rats (100-200 g) by collagenase digestion (Rodbel, 1964). Lipogenesis (during which [U^14-C] glucose was incorporated into the lipids) was performed using the procedure of Moody et al (Moody et al., 1974). Diabetes was induced by a single intravenous injection of freshly prepared streptozocin (STZ) solution (55 mg/kg body wt) as previously described (Meyerovitch et al., 1987). Rats were maintained at 24° C. under conditions of controlled lighting and were fed ad libitum. Blood samples for the analysis of blood glucose were taken from the tail veins and measured with a glucose analyzer (Beckman Instruments, Fullerton, Calif.) by the glucose oxidase method. Groups consisted of five Wistar rats weighing 170±5 g. Data are presented as means±SE.

In turn, `O=C(CCN1C(=O)C=CC1=O)Nc1ccc2c(c1)C(COC(=O)ON1C(=O)CCC1=O)c1cc(S(=O)(=O)O)ccc1-2` (centres unmarked) [MAL-FMS-NHS, N-[2-(maleimido-propionylamino)-7-sulfo-fluoren-9-yl-methoxycarbonyloxy]-succinimide] came in with a solubility in data set [1] of more than 10000 µg/mL. Also, in data set [2] (0.1 M NaHCO3 aqueous solution, 0.1M NaHCO3 pH 8.5, room temperature, read-out: t1/2 of destruction of the maleimide moiety (converted)), the half-life at 1 mM was 2.7 ± 0.3 h. Also, the “stability of the maleimide function” value in data set [2] (pH 4 to 6, over a day or two) is given as “fully stable”; in data set [2] (pH 7.2), “stable over a period of several hours”.
Molecule `CC[C@H](C)[C@H](NC(=O)[C@H](CCC(=O)O)NC(=O)[C@H](C)NC(=O)OCC1c2cc(NC(=O)CCN3C(=O)C=CC3=O)ccc2-c2ccc(S(=O)(=O)O)cc21)C(=O)N[C@@H](CO)C(=O)NCC(=O)N[C@@H](CCC(N)=O)C(=O)N[C@@H](CC(C)C)C(=O)N[C@@H](CO)C(=O)N[C@@H](Cc1ccc(O)cc1)C(=O)N[C@H](C(=O)N[C@@H](CCCNC(=N)N)C(=O)N[C@@H](CC(=O)O)C(=O)N[C@H](C(=O)N[C@@H](CC(N)=O)C(=O)N[C@@H](CO)C(=O)N[C@@H](Cc1c[nH]c2ccccc12)C(=O)N[C@@H](CCC(N)=O)C(=O)N[C@@H](Cc1c[nH]cn1)C(=O)N[C@H](C(=O)N[C@@H](Cc1c[nH]c2ccccc12)C(=O)N[C@H](C(=O)N[C@@H](CC(N)=O)C(=O)N[C@H](C(=O)N[C@@H](CO)C(=O)N[C@H](C(=O)N[C@@H](CCC(=O)O)C(=O)N[C@@H](CC(N)=O)C(=O)O)[C@@H](C)CC)C(C)C)[C@@H](C)O)[C@@H](C)CC)C(C)C)C(C)C` (some centres unmarked) [Mal-FMS-Peptide 27] (HELM PEPTIDE1{[O=C1C=CC(=O)N1CCC(=O)[*:2]].[O=C(OCC1c2cc(N[*:1])ccc2-c2ccc(S(=O)(=O)O)cc21)[*:2]].A.E.I.S.G.Q.L.S.Y.V.R.D.V.N.S.W.Q.H.I.W.T.N.V.S.I.E.N}$$$$V2.0; N-terminus and C-terminus assumed) showed a half-life in “physchem” of 8.4 h.
For “(PEG40-FMS)2-hGH: two PEG40-FMS moieties linked to hGH”, the “native-receptor binding capacity following 50 hours of incubation” value in data set [3] (37° C., normal rat serum or pH 8.5) is listed as 70-80%.
Consider “(PEG5000)5 hGH: hGH with about five PEG5000 chains linked irreversibly (Clark et al., 1996)”, for which the “biological potency of hGH” value in data set [4] is reported as “less than 0.1%”.
Regarding PEG40-FMS-hGH, the “receptor binding affinity” value in data set [3] (in vitro, prior to incubation) is given as “no receptor binding affinity”. Moreover, in data set [5], the “k (h^−1), slope of ln [PEG-FMS conjugate] against time” value was determined as 0.059 h^−1.
For hGH: Recombinant hGH, the “t1/2 of clearance from the circulatory system” value in data set [6] is 0.333 to 0.5 h.
“insulin: Human (Zn2+-free) insulin [reference compound]”: the “ED50 in lipogenic assay” value in the data set on rat adipocytes [7] was 0.3 ± 0.01 ng/mL and 0.3 ng/mL. For the same molecule, in [8], the “t1/2 of decline in blood” value was 9.0 ± 1.0 h and the “time of peak value in blood after administration” value amounted to 1 ± 0.1 h. Also, the “time of maximal fall of circulating glucose” value in the data set with CD1-mice (IP, 0.345 nmoles/mouse) was 15 min. Further, the “time of maximal reduction of blood glucose level” value in the data set on CD1-mice (SC, 1.72 nmol/mouse) was 30 min. In addition, the “stimulation of lipogenesis above basal levels” value in the data set on rat adipocytes [9] was 4-6 times above basal and 4-5 times above basal. For the same molecule, the “ED50 for stimulation of lipogenesis” value with rat adipocytes [9] (rat adipocytes, Example 28 assay) is 0.2 ± 0.02 ng/mL and 0.15 ± 0.03 ng/mL.
